The values that follow come from PubChem BioAssay AID1963960 (Molecular Pharmacology Branch, DTP, NCI, 2024).

The test system of the test is MDA-MB-468 spheroids with HUVEC/MSC, viability. The experiment in a line: Anticancer human tumor MDA-MB-468 cell line growth inhibition [PI3K].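 As to all read-outs here: spheroids exposed to agents for seven days before readout.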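 As to viability, T/C: 100% = DMSO vehicle control viability.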 Particulars: for viability, T/C: stronger effect = lower value. The gist of the method:
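Targeted small molecules plus PI3K inhibitors, half-log dose series from Cmax (default top 10 microM), were applied to heterotypic spheroids of cancer cells with HUVEC and MSCs. Viability indicated growth inhibition.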

The mark [1] stands for this setting: curve of first compound, second compound 0.0316 µM.
Setting [2] is: curve of first compound, second compound 0.1 µM.
Where [3] appears, read: curve of first compound, second compound 0.316 µM.
[4] abbreviates: curve of first compound, second compound 1 µM.
The mark [5] stands for this setting: second compound 0.0316 µM, first compound 0.0316 µM.
[6] abbreviates: second compound 0.0316 µM, first compound 0.1 µM.
[7] abbreviates: second compound 0.1 µM, first compound 0.0316 µM.
Setting [8] is: second compound 0.1 µM, first compound 0.1 µM.
Setting [9] is: second compound 0.316 µM, first compound 0.0316 µM.
Where [10] appears, read: second compound 0.316 µM, first compound 0.1 µM.
Where [11] appears, read: second compound 1 µM, first compound 0.0316 µM.
The mark [12] stands for this setting: second compound 1 µM, first compound 0.1 µM.

Several values for one entry are separate records, joined by “and”; a condition that tells them apart may be missing. Identical values can stand only once.

One may read the viability, T/C as the ratio of treated to control. For orientation: IC50 means the midpoint of a concentration-inhibition curve. Regarding `CC(C)NCC(C(=O)N1CCN(c2ncnc3c2C(C)CC3O)CC1)c1ccc(Cl)cc1` (configuration not stated), the viability, T/C reads like this: (compound 0.0316 µM) 89.5% [middle of 4 runs]; (compound 0.1 µM) 81.3% [middle of 4 runs]; (compound 1 µM) 54.2% [middle of 4 runs]; (compound 3.16 µM) 32.4% [middle of 4 runs]; (compound 10 µM) 26.4% and 22.6% (2×) and 27%. Besides, for the setting “curve of compound”, the IC50 is 1.29 µM [middle of 4 runs].

For `Cn1ncc(Cl)c1-c1cc(C(=O)NC(CN)Cc2cccc(F)c2)sc1Cl` (configuration not stated) + CC(Nc1ccc2c(c1)OCCn1cc(N3C(=O)OCC3C(F)F)nc1-2)C(N)=O, the IC50 is, setting by setting: (curve of first compound, second compound 0.00316 µM) 0.306 µM; (curve of first compound, second compound 0.01 µM) 0.359 µM; under setting [1], 0.284 µM; under setting [2], 0.229 µM; under setting [3], 0.157 µM; under setting [4], 0.133 µM. Also, the viability, T/C (second compound 0.00316 µM, first compound 0.0316 µM) was 89.7%; the viability, T/C (second compound 0.00316 µM, first compound 0.1 µM) was 72.2%; the viability, T/C (second compound 0.00316 µM, first compound 0.316 µM) is 42.9%; the viability, T/C (second compound 0.00316 µM, first compound 1 µM) was 35.6%; the viability, T/C (second compound 0.00316 µM, first compound 3.16 µM) was 22%; the viability, T/C (second compound 0.00316 µM, first compound 10 µM) was 7.53%. Further, the viability, T/C was 83.7% (second compound 0.01 µM, first compound 0.0316 µM); 74.4% (second compound 0.01 µM, first compound 0.1 µM); 44.8% (second compound 0.01 µM, first compound 0.316 µM); 36.4% (second compound 0.01 µM, first compound 1 µM); 25.6% (second compound 0.01 µM, first compound 3.16 µM); 5.85% (second compound 0.01 µM, first compound 10 µM). The viability, T/C by setting is: under setting [5], 91.2%; under setting [6], 71.8%; (second compound 0.0316 µM, first compound 0.316 µM) 39.9%; (second compound 0.0316 µM, first compound 1 µM) 33.7%; (second compound 0.0316 µM, first compound 3.16 µM) 22.1%; (second compound 0.0316 µM, first compound 10 µM) 3.85%. For the same compound, the viability, T/C is, setting by setting: under setting [7], 78.7%; under setting [8], 63.6%; (second compound 0.1 µM, first compound 0.316 µM) 39.8%; (second compound 0.1 µM, first compound 1 µM) 33.6%; (second compound 0.1 µM, first compound 3.16 µM) 20.8%; (second compound 0.1 µM, first compound 10 µM) 4.34%. Also, the viability, T/C under setting [9] is 75.8%; the viability, T/C under setting [10] was 59.6%; the viability, T/C (second compound 0.316 µM, first compound 0.316 µM) is 33.8%; the viability, T/C (second compound 0.316 µM, first compound 1 µM) is 27.5%; the viability, T/C (second compound 0.316 µM, first compound 3.16 µM) is 19.2%; the viability, T/C (second compound 0.316 µM, first compound 10 µM) is 4.28%. Also, the viability, T/C runs as follows: under setting [11], 76.2%; under setting [12], 53%; (second compound 1 µM, first compound 0.316 µM) 37.2%; (second compound 1 µM, first compound 1 µM) 21.8%; (second compound 1 µM, first compound 3.16 µM) 18.9%; (second compound 1 µM, first compound 10 µM) 3.04%.

As for `CC1(C)CCC(CN2CCN(c3ccc(C(=O)NS(=O)(=O)c4ccc(NCC5CCOCC5)c([N+](=O)[O-])c4)c(Oc4cnc5[nH]ccc5c4)c3)CC2)=C(c2ccc(Cl)cc2)C1`, the viability, T/C is, setting by setting: (compound 0.0316 µM) 92.6% [middle of 4 runs]; (compound 0.1 µM) 88% [middle of 4 runs]; (compound 0.316 µM) 97.9% [middle of 4 runs]; (compound 1 µM) 99.4% [middle of 4 runs]; (compound 3.16 µM) 72.8% [middle of 4 runs].

As for `CC(Nc1ccc2c(c1)OCCn1cc(N3C(=O)OCC3C(F)F)nc1-2)C(N)=O` (configuration not stated), the viability, T/C is, setting by setting: (compound 0.00316 µM) 96.8% [middle of 8 runs]; (compound 0.01 µM) 88.1% [middle of 8 runs]; (compound 0.0316 µM) 84.2% [middle of 8 runs]; (compound 0.1 µM) 91.4% [middle of 8 runs]; (compound 0.316 µM) 93.4% [middle of 8 runs]; (compound 1 µM) 90.8% [middle of 8 runs]. The IC50 (compound alone, run of 05/08/2023) is > 1 µM.

Regarding `Cn1ncnc1[C@H]1c2n[nH]c(=O)c3cc(F)cc(c23)N[C@@H]1c1ccc(F)cc1` + Cc1nc(NC(=O)N2CCCC2C(N)=O)sc1-c1ccnc(C(C)(C)C(F)(F)F)c1, the IC50 under setting [1] is > 0.1 µM; the IC50 under setting [2] was 0.0665 µM; the IC50 under setting [3] came to 0.0429 µM; the IC50 under setting [4] stood at 0.0244 µM; the IC50 (curve of first compound, second compound 3.16 µM) was found to be 0.0042 µM; the IC50 (curve of first compound, second compound 10 µM) was < 0.000316 µM. In addition, the viability, T/C is 88.3% (second compound 0.0316 µM, first compound 0.000316 µM); 79.8% (second compound 0.0316 µM, first compound 0.001 µM); 84.7% (second compound 0.0316 µM, first compound 0.00316 µM); 98.3% (second compound 0.0316 µM, first compound 0.01 µM); 84% under setting [5]; 56.3% under setting [6]. The viability, T/C by setting is: (second compound 0.1 µM, first compound 0.000316 µM) 80.2%; (second compound 0.1 µM, first compound 0.001 µM) 93.7%; (second compound 0.1 µM, first compound 0.00316 µM) 81.9%; (second compound 0.1 µM, first compound 0.01 µM) 93%; under setting [7], 62.7%; under setting [8], 43%. Also, the viability, T/C is 88% (second compound 0.316 µM, first compound 0.000316 µM); 76.6% (second compound 0.316 µM, first compound 0.001 µM); 83.7% (second compound 0.316 µM, first compound 0.00316 µM); 79.6% (second compound 0.316 µM, first compound 0.01 µM); 52.5% under setting [9]; 43% under setting [10]. The viability, T/C is 94.2% (second compound 1 µM, first compound 0.000316 µM); 78% (second compound 1 µM, first compound 0.001 µM); 62.9% (second compound 1 µM, first compound 0.00316 µM); 62% (second compound 1 µM, first compound 0.01 µM); 46.1% under setting [11]; 41.4% under setting [12]. The viability, T/C was 64.7% (second compound 3.16 µM, first compound 0.000316 µM); 60% (second compound 3.16 µM, first compound 0.001 µM); 50.4% (second compound 3.16 µM, first compound 0.00316 µM); 46.7% (second compound 3.16 µM, first compound 0.01 µM); 37.6% (second compound 3.16 µM, first compound 0.0316 µM); 36.2% (second compound 3.16 µM, first compound 0.1 µM). Besides, the viability, T/C by setting is: (second compound 10 µM, first compound 0.000316 µM) 35.2%; (second compound 10 µM, first compound 0.001 µM) 25.9%; (second compound 10 µM, first compound 0.00316 µM) 31.2%; (second compound 10 µM, first compound 0.01 µM) 26.9%; (second compound 10 µM, first compound 0.0316 µM) 20.3%; (second compound 10 µM, first compound 0.1 µM) 18.5%.
